{"source": "paper PMC11530130", "about": "“Peripherally restricted PICK1 inhibitor mPD5 ameliorates pain behaviors in murine inflammatory and neuropathic pain models” (JCI Insight, 2024)", "test": "Stability of mPD5 in PBS, 30 days at 5 °C and 25 °C, HPLC-UV-MS", "procedure": "SUPPORTING INFORMATION: Method Section.\nSex as a biological variable.\nAll peptides were ordered from WuXI AppTec (Shanghai, China) or TAG-Copenhagen […]\nAssessment of solubility and stability of mPD5.\nSolubility was determined by visual inspection of samples dissolved in increasing concentration in 10 mM PBS as judged by full transparency and monophasic appearance.\nStability was addressed by […] for four concentrations (2, 20, 50, and 200 µM), by leaving mPD5 in PBS at 5 °C and 25 °C for 30 days followed by HPLC-UV-MS. […]\nSuperdex200 Increase 10/300.", "key": {"[1]": {"settings": "30 days 5°C, nominal conc. 2 μM"}, "[2]": {"settings": "30 days 5°C, nominal conc. 20 μM"}, "[3]": {"settings": "30 days 5°C, nominal conc. 50 μM"}, "[4]": {"settings": "30 days 5°C, nominal conc. 200 μM"}, "[5]": {"settings": "30 days 25°C, nominal conc. 2 μM"}, "[6]": {"settings": "30 days 25°C, nominal conc. 20 μM"}, "[7]": {"settings": "30 days 25°C, nominal conc. 50 μM"}, "[8]": {"settings": "30 days 25°C, nominal conc. 200 μM"}}}
{"smiles": "CCCCCCCCCCCCCC(=O)N(CCOCCOCCC(=O)N[C@@H](Cc1c[nH]cn1)C(=O)N[C@@H](Cc1c[nH]c2ccccc12)C(=O)N[C@@H](CC(C)C)C(=O)N[C@@H](CCCCN)C(=O)N[C@H](C(=O)O)C(C)C)CCOCCOCCC(=O)N[C@@H](Cc1c[nH]cn1)C(=O)N[C@@H](Cc1c[nH]c2ccccc12)C(=O)N[C@@H](CC(C)C)C(=O)N[C@@H](CCCCN)C(=O)N[C@H](C(=O)O)C(C)C", "note": "[mPD5, myristoyl-NPEG4-(HWLKV)2]", "values": [{"measurement": "Measured conc. mPD5", "setting": "[1]", "value": 0.5, "unit": "µM"}, {"measurement": "UV-HPLC peak area", "setting": "[1]", "value": 37}, {"measurement": "pH", "setting": "[1]", "value": 7.37}, {"measurement": "Measured conc. mPD5", "setting": "[2]", "value": 17, "unit": "µM"}, {"measurement": "UV-HPLC peak area", "setting": "[2]", "value": 1196}, {"measurement": "pH", "setting": "[2]", "value": 7.40}, {"measurement": "Measured conc. mPD5", "setting": "[3]", "value": 49, "unit": "µM"}, {"measurement": "UV-HPLC peak area", "setting": "[3]", "value": 3347}, {"measurement": "pH", "setting": "[3]", "value": 7.39}, {"measurement": "Measured conc. mPD5", "setting": "[4]", "value": 194, "unit": "µM"}, {"measurement": "UV-HPLC peak area", "setting": "[4]", "value": 6665}, {"measurement": "pH", "setting": "[4]", "value": 7.37}, {"measurement": "Measured conc. mPD5", "setting": "[5]", "value": 0.4, "unit": "µM"}, {"measurement": "UV-HPLC peak area", "setting": "[5]", "value": 26}, {"measurement": "pH", "setting": "[5]", "value": 7.37}, {"measurement": "Measured conc. mPD5", "setting": "[6]", "value": 17, "unit": "µM"}, {"measurement": "UV-HPLC peak area", "setting": "[6]", "value": 1161}, {"measurement": "pH", "setting": "[6]", "value": 7.39}, {"measurement": "Measured conc. mPD5", "setting": "[7]", "value": 48, "unit": "µM"}, {"measurement": "UV-HPLC peak area", "setting": "[7]", "value": 3325}, {"measurement": "pH", "setting": "[7]", "value": 7.41}, {"measurement": "Measured conc. mPD5", "setting": "[8]", "value": 203, "unit": "µM"}, {"measurement": "UV-HPLC peak area", "setting": "[8]", "value": 7005}, {"measurement": "pH", "setting": "[8]", "value": 7.36}, {"measurement": "shelf stability", "setting": "PBS, 30 days, 5°C and 25°C", "value": "excellent shelf stability"}]}
